In EP4186514A1, “PHARMACEUTICAL COMPOSITION FOR PREVENTING OR TREATING CHOLANGITIS OR LIVER DISEASE CAUSED BY CHOLANGITIS COMPRISING ADENOSINE DERIVATIVE” (Future Medicine Co., Ltd., priority 2021, dated 2023):

Assays:
rats [1] = details: rat, in vivo
Procedure: (§2) In order to test the single-dose toxicity of the compound of the formula A, a single dose of 2,000 mg/kg of the compound of the formula A was administered to each of five male rats and five female rats.

[2] = Plasma stability, rat plasma; assay type: in vitro ADME
Procedure: (§1) In order to test the physicochemical properties of the adenosine derivative of the inventive concept, experiments were conducted on the compound of the formula A in vitro, and the results are shown in Table 3. Plasma stability and protein binding were measured using rat and human plasma.

[3] = Storage stability of oral administration agent in 0.5 wt % methylcellulose (UPLC); assay type: physicochemical
Procedure: 0.5 wt % methylcellulose, which can be used as an excipient for oral administration, was added to the compound of the formula A, sonicated and homogenized, and then divided into a group to be stored at room temperature or at 4° C., and after 1, 3, 7, and 10 days, the stability was measured by comparing the concentration with 0.5% methyl cellulose as the control group using Waters UPLC and he results are shown in Table 12.

Sprague Dawley rats = assay: Toxicity after intraperitoneal injection, rats; assay type: in vivo; details: intraperitoneal 20, 10 and 1 mg/kg
Procedure: The Adenosine Derivative of the present invention were assayed for cytotoxicity in animals.

rats [4] = assay: Single-dose toxicity in rats; details: summary Table 11
Procedure: as §2

PAMPA = assay type: in vitro ADME
Procedure: as §1

hERG channel protein = hERG channel protein (Homo sapiens, UniProt Q12809); assay: hERG ligand binding assay (fluorescence polarization)
Text: In order to test the hERG ligand binding assay of the compound of the formula A, a non-electrophysiological method was used to evaluate heart stability by evaluating fluorescence polarization according to the degree of hERG channel protein binding of a red fluorescent hERG channel ligand tracer.

A2A adenosine receptor = target: T1, A2A adenosine receptor (Homo sapiens, UniProt P29274); assay: Radioligand binding affinity, A2A adenosine receptor ([3H]CGS-21680, HEK 293 cell); details: percentage inhibition of specific binding of 10 µM
T1 construct: expressed in transfected cells; host or cells: HEK 293 cell
Procedure: The adenosine derivatives of the present invention were assayed for binding affinity and selectivity for A1, A2A and A3 receptors among human adenosine receptor (hAR) as follows.
Adenosine deaminase was added alone or in combination with a radioactive ligand when cerebral meninges were incubated at 30° C. for 30 min. Each of the compounds synthesized in the examples was measured for IC50 at least 6 different concentrations, and the measurements were analyzed using SigmaPlot software to determine Ki values.

Equilibrium solubility = assay type: physicochemical; details: listed as compound of the formula A
Procedure: as §1

[5] = Cytotoxicity, Cyto X cell viability assay kit; assay type: cell-based; details: in each cell line
each cell line = assay: Cytotoxicity, Cyto X cell viability assay kit; assay type: cell-based; details: summary Table 11
A1 adenosine receptor = target: T2, A1 adenosine receptor (Homo sapiens, UniProt P30542); assay: Radioligand binding affinity, A1 adenosine receptor ([3H]CCPA, CHO cells); design: % hA1: dose or concentration left out as unconfirmed; details: percentage inhibition of specific binding of [3H]CCPA
T2 construct: expressed in transfected cells; host or cells: CHO cells (ATCC No. CCL-61)
T2 sequence (P30542 1-326): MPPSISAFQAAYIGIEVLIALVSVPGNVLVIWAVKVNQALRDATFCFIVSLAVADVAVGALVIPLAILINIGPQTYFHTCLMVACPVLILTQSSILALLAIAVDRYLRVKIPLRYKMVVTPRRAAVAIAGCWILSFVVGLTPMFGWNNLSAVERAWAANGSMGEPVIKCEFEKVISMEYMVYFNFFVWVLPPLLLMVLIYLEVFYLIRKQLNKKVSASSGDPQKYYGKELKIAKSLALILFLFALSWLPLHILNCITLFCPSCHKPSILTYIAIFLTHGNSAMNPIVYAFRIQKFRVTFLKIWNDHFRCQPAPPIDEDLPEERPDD
Procedure: CHO cells (ATCC No. CCL-61), in which A1 and A3 adenosine receptors were expressed, were cultured in F-12 media (Gibco, U.S.A.) supplemented with 10% fetal bovine serum (FBS) and penicillin/streptomycin (100 units/ml and 100 g/ml), at 37° C. in a 5% CO2 atmosphere. […] Incubation for 1 hr in a 37° C. incubator was followed by rapid filtration in a vacuum using a cell collector (TOMTEC, U.S.A.). Subsequently, the test tubes were washed three times with 3 ml of the buffer before radioactivity was measured using a γ-counter. […] Ki for binding affinity was determined by subtracting the non-specific binding value from the total binding value. On the basis of the specific binding values, the samples were analyzed for binding affinity to various adenosine receptors.

[6] = Pharmacokinetic test in mice (Experimental Example 5); assay type: in vivo; details: male, ICR, mouse, plasma, oral administration of 10 mg/kg, read-out: half-life T1/2 (converted)
Procedure: In order to test the ADME properties of the adenosine derivative of the inventive concept after oral administration, pharmacokinetic properties of the compound of the formula A were measured in vivo. […] Intravenous administration was performed through a tube inserted into the femoral vein, and oral administration was performed using oral gavage. [Table 4] [table] After the administration, the experimental animals' blood was taken at predetermined time intervals for 24 hours. Then, the blood was centrifuged to separate plasma. The plasma samples were pretreated with a suitable organic solvent, and then the concentration of the plasma samples was analyzed by LC-MS/MS. The blood concentration-time data of the compound of the formula A was analyzed using WinNonlin (Pharsight, USA), and graphs of the blood concentration-time data are shown in FIGS. 5 through 9. The results of noncompartmental pharmacokinetic parameters calculated from the blood concentration-time data are shown in Tables 5 through 9. In FIGS. 5 through 9, I.V. represents an intravenous administration group, P.O. represents an oral administration group, and the definition of each parameter in Tables 5 through 9 is shown in Table 10. FIG. 7 and Table 7 show a graph and parameter values obtained from the blood concentration-time data of Experimental Example 5. […] Thus, the adenosine derivative is suitable for oral administration.

Kinetic solubility = assay type: physicochemical; details: listed as compound of the formula A
Procedure: as §1

[7] = Pharmacokinetic test in rats (Experimental Examples 3 and 4); assay type: in vivo; details: male, SD, rat, plasma, po
Procedure: In order to test the ADME properties of the adenosine derivative of the inventive concept after oral administration, pharmacokinetic properties of the compound of the formula A were measured in vivo.
Intravenous administration was performed through a tube inserted into the femoral vein, and oral administration was performed using oral gavage.
After the administration, the experimental animals' blood was taken at predetermined time intervals for 24 hours. Then, the blood was centrifuged to separate plasma. The plasma samples were pretreated with a suitable organic solvent, and then the concentration of the plasma samples was analyzed by LC-MS/MS. The blood concentration-time data of the compound of the formula A was analyzed using WinNonlin (Pharsight, USA), and graphs of the blood concentration-time data are shown in FIGS. 5 through 9. The results of noncompartmental pharmacokinetic parameters calculated from the blood concentration-time data are shown in Tables 5 through 9. In FIGS. 5 through 9, I.V. represents an intravenous administration group, P.O. represents an oral administration group, and the definition of each parameter in Tables 5 through 9 is shown in Table 10.
Thus, the adenosine derivative of the inventive concept is more suitable for oral administration than for intravenous administration.

Chain of hERG channel protein (Q12809 whole entry): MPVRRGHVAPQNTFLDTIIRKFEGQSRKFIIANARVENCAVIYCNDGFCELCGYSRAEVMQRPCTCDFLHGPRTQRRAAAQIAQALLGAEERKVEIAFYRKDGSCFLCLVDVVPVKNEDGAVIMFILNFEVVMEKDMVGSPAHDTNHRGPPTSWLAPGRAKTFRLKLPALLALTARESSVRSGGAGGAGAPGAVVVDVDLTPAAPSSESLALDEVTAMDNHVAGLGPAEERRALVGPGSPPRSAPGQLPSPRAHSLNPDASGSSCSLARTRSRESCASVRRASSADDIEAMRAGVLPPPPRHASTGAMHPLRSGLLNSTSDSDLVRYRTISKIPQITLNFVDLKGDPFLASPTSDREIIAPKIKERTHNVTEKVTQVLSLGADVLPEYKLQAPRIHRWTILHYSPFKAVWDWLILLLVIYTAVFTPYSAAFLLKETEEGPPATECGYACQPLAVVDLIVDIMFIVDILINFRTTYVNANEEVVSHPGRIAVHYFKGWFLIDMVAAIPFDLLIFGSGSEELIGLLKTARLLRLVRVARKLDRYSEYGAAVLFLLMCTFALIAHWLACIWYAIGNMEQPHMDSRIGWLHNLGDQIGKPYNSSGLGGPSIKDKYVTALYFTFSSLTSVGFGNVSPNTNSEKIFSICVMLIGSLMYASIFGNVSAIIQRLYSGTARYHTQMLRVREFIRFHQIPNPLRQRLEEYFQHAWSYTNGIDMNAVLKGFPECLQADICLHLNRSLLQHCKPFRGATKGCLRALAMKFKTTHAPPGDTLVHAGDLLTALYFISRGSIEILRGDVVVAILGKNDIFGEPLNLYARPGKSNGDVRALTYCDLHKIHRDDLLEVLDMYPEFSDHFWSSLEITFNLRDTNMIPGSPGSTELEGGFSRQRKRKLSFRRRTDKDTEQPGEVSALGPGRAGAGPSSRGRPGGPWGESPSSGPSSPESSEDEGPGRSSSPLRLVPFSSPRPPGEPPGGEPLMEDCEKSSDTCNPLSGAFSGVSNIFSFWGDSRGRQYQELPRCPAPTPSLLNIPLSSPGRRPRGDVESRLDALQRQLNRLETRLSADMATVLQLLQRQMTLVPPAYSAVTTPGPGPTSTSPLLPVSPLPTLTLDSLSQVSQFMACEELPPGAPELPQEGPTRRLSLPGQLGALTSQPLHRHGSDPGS
T1 sequence (P29274 whole entry): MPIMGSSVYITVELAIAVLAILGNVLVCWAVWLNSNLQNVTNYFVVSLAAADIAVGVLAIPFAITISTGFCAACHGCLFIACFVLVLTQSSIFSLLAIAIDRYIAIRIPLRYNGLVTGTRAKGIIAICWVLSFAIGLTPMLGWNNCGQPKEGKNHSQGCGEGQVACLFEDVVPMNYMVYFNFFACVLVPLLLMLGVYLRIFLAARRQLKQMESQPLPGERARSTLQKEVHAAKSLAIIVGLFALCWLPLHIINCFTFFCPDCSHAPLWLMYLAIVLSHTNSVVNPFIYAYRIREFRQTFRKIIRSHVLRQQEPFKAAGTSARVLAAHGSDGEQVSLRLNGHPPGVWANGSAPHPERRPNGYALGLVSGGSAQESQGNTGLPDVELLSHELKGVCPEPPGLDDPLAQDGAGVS

SMILES: O[C@@H]1[C@H](O)CS[C@H]1n1cnc2c(NCc3cccc(Cl)c3)nc(Cl)nc21 [Example 2, (2R,3R,4S)-2-(2-chloro-6-(3-chlorobenzylamino)-9H-purin-9-yl)tetrahydrothiophen-3,4-diol]
- death after single dose (rats [1]): no animals died
- Plasma stability [2]: > 99.9
- Stability (%) ([3]; Stored at 4°C, After 1 day, 200 µg/ml): 118±21.4%
- Stability (%) ([3]; Stored at 4°C, After 1 day, 1000 µg/ml): 76.5±11.7%
- Stability (%) ([3]; Stored at 4°C, After 1 day, 3000 µg/ml): 84.8±17.9%
- Stability (%) ([3]; Stored at 4°C, After 3 days, 200 µg/ml): 125±40.2%
- Stability (%) ([3]; Stored at 4°C, After 3 days, 1000 µg/ml): 87.6±9.26%
- Stability (%) ([3]; Stored at 4°C, After 3 days, 3000 µg/ml): 94.8±2.55%
- Stability (%) ([3]; Stored at 4°C, After 7 days, 200 µg/ml): 88.3±17.3%
- Stability (%) ([3]; Stored at 4°C, After 7 days, 1000 µg/ml): 80.1±27.7%
- Stability (%) ([3]; Stored at 4°C, After 7 days, 3000 µg/ml): 89.7±8.30%
- Stability (%) ([3]; Stored at 4°C, After 10 days, 200 µg/ml): 93.8±44.8%
- Stability (%) ([3]; Stored at 4°C, After 10 days, 1000 µg/ml): 79.5±22.0%
- Stability (%) ([3]; Stored at 4°C, After 10 days, 3000 µg/ml): 99.0±3.87%
- Stability (%) ([3]; Stored at RT, After 1 day, 200 µg/ml): 84.3±4.10%
- Stability (%) ([3]; Stored at RT, After 1 day, 1000 µg/ml): 82.7±16.3%
- Stability (%) ([3]; Stored at RT, After 1 day, 3000 µg/ml): 90.5±6.44%
- Stability (%) ([3]; Stored at RT, After 3 days, 200 µg/ml): 76.3±8.12%
- Stability (%) ([3]; Stored at RT, After 3 days, 1000 µg/ml): 82.7±37.0%
- Stability (%) ([3]; Stored at RT, After 3 days, 3000 µg/ml): 80.5±5.01%
- Stability (%) ([3]; Stored at RT, After 7 days, 200 µg/ml): 80.9±14.6%
- Stability (%) ([3]; Stored at RT, After 7 days, 1000 µg/ml): 75.4±6.66%
- Stability (%) ([3]; Stored at RT, After 7 days, 3000 µg/ml): 101±13.2%
- Stability (%) ([3]; Stored at RT, After 10 days, 200 µg/ml): 90.3±23.2%
- Stability (%) ([3]; Stored at RT, After 10 days, 1000 µg/ml): 94.2±9.17%
- Stability (%) ([3]; Stored at RT, After 10 days, 3000 µg/ml): 92.2±2.17%
- weight gain or feed intake versus control group (Sprague Dawley rats): No difference
- death (Sprague Dawley rats; observation for 24 hrs): No death was observed
- Toxicity, Single-dose toxicity evaluation (rats [4]): Not detected
- PAMPA (PAMPA): -4.49
- inhibition rate (hERG ligand binding) (hERG channel protein; 10 µM of the compound): ≤ 50%
- Toxicity, hERG ligand binding assay evaluation (hERG channel protein; summary Table 11): Not detected
- % hA2A (A2A adenosine receptor): 17.7%
- Equilibrium solubility (Equilibrium solubility): 2.76 µg/mL
- IC50 [5]: ≥ 10 µM
- Toxicity, Cytotoxicity evaluation (each cell line): Not detected
- % hA1 (A1 adenosine receptor): 37.9%
- half-life [6]: ~3.61 h
- Kinetic solubility (Kinetic solubility): 148.8 µg/mL
- bioavailability ([7]; read-out: bioavailability Ft): ≥ 99.9%
- half-life ([7]; read-out: half-life T1/2): ≥ 3.34 h
